# Assay results reported in patent US12691124B2, “Methods of controlling and improving brain health” (ICAHN SCHOOL OF MEDICINE AT MOUNT SINAI, priority 2019, dated 2026).
# Key:
# [1] = tested on: primary cortical neurons exposed to glutamate; assay: Glutamate excitotoxicity in primary cortical neurons; format: cell-based, mouse
# Protocol: LDH Assay. LDH activity was measured using the Pierce LDH Cytotoxicity Assay Kit. Culture media was incubated with an equal volume of LDH master mix and incubated for 30 minutes at room temperature in the dark. After, the same volume of stop reagent was added and the absorbance was measured at 490 and 680 nm. Maximum LDH measurements were obtained by adding lysis buffer to release the total amount of LDH in the sample. LDH release is calculated as a percent of the maximum.
# Propidium Iodide Assay. Propidium iodide (1 mg/ml, Life Technologies #P3566) was added to each culture well at a final concentration of 0.5 μg/ml. Cultures were incubated for 30 minutes at 37 degrees then washed with PBS. Cells were then fixed with 4% paraformaldehyde in PBS for 15 minutes at room temperature. After fixation, cells were washed with PBS and then mounted using mounting media containing DAPI.
# In addition to increasing longevity, rapamycin treatment protects neurons from toxic stimuli such as excessive glutamate. […] Because IBET858 increased neuronal lifespan to the same extent as rapamycin, it was hypothesized that BET inhibition could also induce a protective state in neurons. To test if IBET858 can prevent neuronal death, the neurons were exposed to excitotoxic levels of glutamate, a common in vitro assay that mirrors neuronal death observed in vivo after stroke or neurodegeneration. High levels of glutamate cause a strong influx of calcium into the neuron ultimately leading to necrosis followed by apoptosis.
# Neurons were treated with IBET858 for increasing durations (2 h, 24 h, 72 h or 1 week) before stimulation with an excitotoxic amount of glutamate (1 mM) on day 14 when mature synapses fully express glutamate receptors. Chronic but not acute BET inhibition increases neuronal survival in response to glutamate toxicity, as measured by the LDH assay. […] Therefore a 1 week treatment time point was used for all subsequent experiments.
# primary cortical neurons = assay: Autophagy, protein content and cell size in neurons (LC3II/LC3I, BCA, Map2+ area); format: cell-based, mouse
# Protocol: Immunoblotting. Mice were anesthetized with CO2 followed by decapitation, and the region of interest was rapidly dissected and frozen in liquid nitrogen and stored at −80° C. until further processing. Samples were sonicated at 4° C. in 1% SDS solution supplemented with protease, Trichostatin A (500 ng/ml) and PhosStop phosphatase inhibitor (Roche, Switzerland), and boiled for ten minutes. The protein concentration was determined using a BCA protein assay kit (ThermoFisherScientific, USA) according to the manufacturer's instructions. Protein samples were diluted in equal volume of 2×LDS sample buffer (Invitrogen) and supplemented with DTT to a final concentration of 200 mM (Sigma).
# Because autophagy increases lipid species which are mostly non-polar, they are not detected in the polar metabolite data. However, if autophagy is, in fact, activated after BET inhibition, the neurons would be smaller and possibly contain less protein. Indeed, total protein content is decreased by 13% as measured by the BCA assay after one week of BET inhibition (FIG. 13C). […] Moreover, BET inhibition causes an almost three-fold increase in autophagy as measured by the ratio of LC3II to LC3I, a common autophagic marker (FIG. 13D).
# Primary cortical neurons treated with IBET858 for 1 week have decreased glycolysis and amino acid metabolites (FIG. 21A). […] A summary of gene expression and metabolite data highlighting downregulation of solute carriers and metabolites that support anabolic and oxidative metabolic programs and an upregulation of neuroprotective metabolites and programs, such as autophagy (FIG. 21C). The glycolytic capacity of primary cortical neurons treated with acute (24 hour) or chronic (1 week) of IBET858 (FIGS. 21D-21H). IBET treated neurons was evaluated using the Seahorse assay. […] Further, the neurons display a decrease in glycolytic capacity as measured by the extracellular acidification rate (ECAR) (FIG. 21H). 1 week of IBET858 treatment increases autophagy as measured by an increase in the LC3 II/I ratio and a decrease in overall protein content by BCA assay (FIGS. 21I and 21J). CAG-RFP-EGFP-Map1lc3b mice expressing the LC3 protein together with RFP and a pH-dependent eGFP were used to evaluate the number of autophagic vesicles by immunofluorescence (FIGS. 21K and 21L). […] Frequency distribution of autophagic vesicles after 24 hours (left) or 1 week (right) treatment with IBET858 (FIG. 21L).
# R6/2 mice = assay: Survival of R6/2 Huntington's mouse model; details: 30 mg/kg i.p. daily from 6 weeks of age for 5 weeks
smiles,measurement,setting,value
CC(=O)N1c2ccc(-c3ccc(CN4CCCCC4)cc3)cc2[C@H](Nc2ccccc2)CC1C (stereo in doubt) [IBET858],"protection from excitotoxicity, IBET858 compared with rapamycin","[1]; 1 week IBET858 1 μM, Rapamycin 20 nM, 1 mM glutamate",as well as rapamycin
same,"cell death after glutamate exposure, propidium iodide","[1]; 1 week pretreatment, 1 mM glutamate",fewer neurons treated with IBET858 die
same,"excitotoxicity-induced neuronal death, LDH assay","[1]; 1 week pretreatment, 1 mM glutamate, day 14",almost completely prevents
same,"excitotoxicity-induced neuronal death, LDH assay","[1]; 72 h pretreatment, 1 mM glutamate",mild protective effect
same,"neuroprotective phenotype after washout, glutamate exposure","[1]; temporary pretreatment, wash out, 4 days on DMSO, 1 mM glutamate day 14",neuroprotective phenotype that is maintained even in the absence of IBET
same,decrease in somatic area (Map2+ area),primary cortical neurons,25%
same,autophagic vesicles (CAG-RFP-EGFP-Map1lc3b neurons),primary cortical neurons; 1 w,an increase in autophagic vesicles
same,"increase in autophagy, ratio of LC3II to LC3I",primary cortical neurons; 1 week,three
same,"decrease in total protein content, BCA assay",primary cortical neurons; one week of BET inhibition,13%
same,survival,R6/2 mice,rescued survival
